In US20240199534A1 (Mitochondria Emotion, Inc., priority 2021, published 2024):
Like-named read-outs stand apart in the source and are kept apart here.

Tests used:
[1] = In vivo pharmacokinetics IV and PO (Table 1A); set-up: species or system mouse; details: for Tmax: PO, mouse plasma
MFN2 = target: T1, MFN2 (Mus musculus, UniProt Q80U63); assay: Mitofusin activation (MFN activity), EC50; format: cell-based; details: stereoisomeric configurations of Compound 2
T1 sequence (Q80U63 1-757): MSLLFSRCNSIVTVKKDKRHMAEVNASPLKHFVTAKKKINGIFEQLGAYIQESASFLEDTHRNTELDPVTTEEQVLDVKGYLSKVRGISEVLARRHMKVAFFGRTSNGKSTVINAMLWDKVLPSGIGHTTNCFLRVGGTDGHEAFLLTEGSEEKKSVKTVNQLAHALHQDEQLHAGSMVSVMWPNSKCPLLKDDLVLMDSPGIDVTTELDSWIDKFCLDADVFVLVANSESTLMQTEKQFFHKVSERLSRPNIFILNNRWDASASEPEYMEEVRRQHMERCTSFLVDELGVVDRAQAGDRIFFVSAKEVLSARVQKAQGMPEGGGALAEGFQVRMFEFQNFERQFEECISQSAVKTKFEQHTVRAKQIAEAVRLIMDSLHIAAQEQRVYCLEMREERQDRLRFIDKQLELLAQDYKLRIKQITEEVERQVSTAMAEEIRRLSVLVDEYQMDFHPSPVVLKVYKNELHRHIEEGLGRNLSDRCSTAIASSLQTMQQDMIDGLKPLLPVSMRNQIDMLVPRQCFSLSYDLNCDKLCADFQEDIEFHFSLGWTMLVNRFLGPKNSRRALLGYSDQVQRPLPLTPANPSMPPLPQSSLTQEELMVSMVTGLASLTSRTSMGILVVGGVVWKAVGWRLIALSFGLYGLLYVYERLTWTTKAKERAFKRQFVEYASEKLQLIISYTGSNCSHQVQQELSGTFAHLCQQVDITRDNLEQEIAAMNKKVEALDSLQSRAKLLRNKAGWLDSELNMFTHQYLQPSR
Method: Mitochondria were then stained with MitoTracker Orange (200 nM; M7510; Invitrogen, Carlsbad, CA, USA). Nuclei were stained with Hoescht (10 μg/ml; Invitrogen, Thermo Fisher Scientific Cat: #H3570). […] Response curves were interpolated using the sigmoidal model using Prism 8 software.
Testing details for the MFN activity and PAMPA assay are provided in U.S. Patent Applications 2020/034566 and 2020/0345669, incorporated herein by reference.

In the case of `O=C(N[C@H]1CC[C@H](O)CC1)C1CC1CCCc1ccccc1` (mixture of isomers) [Compound 2, N-((1r,4r)-4-hydroxycyclohexyl)-2-(3-phenylpropyl)cyclopropane-1-carboxamide], the Vd ([1]; male, CD-1, mouse, plasma, iv, 10 mg/kg, read-out: Vdss) is reported as 0.6 L/kg, the bioavailability ([1]; male, CD-1, mouse, plasma, po, 50 mg/kg) is reported as 59% and the MRT ([1]; male, CD-1, mouse, plasma, single 50 mg/kg oral dose, read-out: mean tissue residence time (MRT)) is reported as 215 min. The Tmax ([1]; male, CD-1, 50 mg/kg, read-out: Tmax) was 30 min.
With `O=C(CCCCCc1ccccc1)N[C@H]1CC[C@H](O)CC1` [Compound 1, N-(trans-4-hydroxycyclohexyl)-6-phenylhexanamide, reference compound] the “Tmax” value ([1]; 50 mg/kg) was 30 min.
With `O=C(N[C@H]1CC[C@H](O)CC1)[C@@H]1C[C@H]1CCCc1ccccc1` [Compound 2A, (1R,2R)-N-((1r,4R)-4-hydroxycyclohexyl)-2-(3-phenylpropyl)cyclopropane-1-carboxamide] the “activity toward promoting mitofusin activation” value (MFN2) was “active toward promoting mitofusin activation”.
